Experimental data: US11447466B2, “Substituted indole compounds useful as inhibitors of TLR7/8/9” (BRISTOL-MYERS SQUIBB COMPANY, priority 2017, dated 2022)

Assays:
Type in all cases: cell-based
human TLR7 = target: T1, human TLR7 (Homo sapiens, UniProt Q9NYK1); experiment: TLR7 inhibition reporter assay (HEK-Blue SEAP reporter, gardiquimod stimulation); conditions: HEK-Blue cells overexpressing human TLR7, SEAP reporter, gardiquimod 7.5 μM, 22 hour incubation
T1 construct: host or cells: HEK-Blue cells
T1 sequence (Q9NYK1 27-1049): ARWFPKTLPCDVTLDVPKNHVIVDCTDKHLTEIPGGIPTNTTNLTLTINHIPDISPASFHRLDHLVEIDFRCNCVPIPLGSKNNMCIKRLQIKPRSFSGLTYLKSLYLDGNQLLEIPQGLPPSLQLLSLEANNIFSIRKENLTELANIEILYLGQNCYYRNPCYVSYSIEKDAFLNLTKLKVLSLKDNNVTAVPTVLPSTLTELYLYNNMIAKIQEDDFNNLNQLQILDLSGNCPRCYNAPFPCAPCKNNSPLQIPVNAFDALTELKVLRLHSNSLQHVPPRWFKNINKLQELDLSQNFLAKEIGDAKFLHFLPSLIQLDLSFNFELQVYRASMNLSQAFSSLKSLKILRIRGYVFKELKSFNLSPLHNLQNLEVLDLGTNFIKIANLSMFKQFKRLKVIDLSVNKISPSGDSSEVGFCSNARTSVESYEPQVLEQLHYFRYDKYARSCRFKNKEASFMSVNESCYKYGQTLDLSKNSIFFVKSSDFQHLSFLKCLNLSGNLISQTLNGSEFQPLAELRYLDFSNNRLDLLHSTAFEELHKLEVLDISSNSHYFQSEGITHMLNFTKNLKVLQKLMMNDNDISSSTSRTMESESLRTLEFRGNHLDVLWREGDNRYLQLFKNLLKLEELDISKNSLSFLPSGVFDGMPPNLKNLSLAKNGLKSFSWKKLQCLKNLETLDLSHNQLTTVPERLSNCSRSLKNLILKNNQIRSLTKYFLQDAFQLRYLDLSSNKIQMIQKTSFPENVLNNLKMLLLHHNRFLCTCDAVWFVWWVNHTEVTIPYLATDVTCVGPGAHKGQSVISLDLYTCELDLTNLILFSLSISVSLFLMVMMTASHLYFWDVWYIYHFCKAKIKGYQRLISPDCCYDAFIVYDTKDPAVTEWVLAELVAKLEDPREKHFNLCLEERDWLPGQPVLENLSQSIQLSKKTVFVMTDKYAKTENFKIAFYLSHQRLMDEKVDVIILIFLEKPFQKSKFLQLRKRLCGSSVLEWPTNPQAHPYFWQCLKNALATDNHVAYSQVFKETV
Summary of the method: (§1)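 HEK-Blue cells overexpressing human TLR7, TLR8 or TLR9 carry a SEAP reporter driven by NF-κB/AP-1 sites. Compounds (0.05 nM–50 μM) were preincubated 30 min at room temperature, then cells were stimulated with gardiquimod 7.5 μM (TLR7), R848 15.9 μM (TLR8) or ODN2006 5 nM (TLR9) for 22 h at 37 °C.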

human TLR8 = target: T2, human TLR8 (Homo sapiens, UniProt Q9NR97); experiment: TLR8 inhibition reporter assay (HEK-Blue SEAP reporter, R848 stimulation); conditions: HEK-Blue cells overexpressing human TLR8, SEAP reporter, R848 15.9 μM, 22 hour incubation
T2 construct: host or cells: HEK-Blue cells
T2 sequence (Q9NR97 27-1041): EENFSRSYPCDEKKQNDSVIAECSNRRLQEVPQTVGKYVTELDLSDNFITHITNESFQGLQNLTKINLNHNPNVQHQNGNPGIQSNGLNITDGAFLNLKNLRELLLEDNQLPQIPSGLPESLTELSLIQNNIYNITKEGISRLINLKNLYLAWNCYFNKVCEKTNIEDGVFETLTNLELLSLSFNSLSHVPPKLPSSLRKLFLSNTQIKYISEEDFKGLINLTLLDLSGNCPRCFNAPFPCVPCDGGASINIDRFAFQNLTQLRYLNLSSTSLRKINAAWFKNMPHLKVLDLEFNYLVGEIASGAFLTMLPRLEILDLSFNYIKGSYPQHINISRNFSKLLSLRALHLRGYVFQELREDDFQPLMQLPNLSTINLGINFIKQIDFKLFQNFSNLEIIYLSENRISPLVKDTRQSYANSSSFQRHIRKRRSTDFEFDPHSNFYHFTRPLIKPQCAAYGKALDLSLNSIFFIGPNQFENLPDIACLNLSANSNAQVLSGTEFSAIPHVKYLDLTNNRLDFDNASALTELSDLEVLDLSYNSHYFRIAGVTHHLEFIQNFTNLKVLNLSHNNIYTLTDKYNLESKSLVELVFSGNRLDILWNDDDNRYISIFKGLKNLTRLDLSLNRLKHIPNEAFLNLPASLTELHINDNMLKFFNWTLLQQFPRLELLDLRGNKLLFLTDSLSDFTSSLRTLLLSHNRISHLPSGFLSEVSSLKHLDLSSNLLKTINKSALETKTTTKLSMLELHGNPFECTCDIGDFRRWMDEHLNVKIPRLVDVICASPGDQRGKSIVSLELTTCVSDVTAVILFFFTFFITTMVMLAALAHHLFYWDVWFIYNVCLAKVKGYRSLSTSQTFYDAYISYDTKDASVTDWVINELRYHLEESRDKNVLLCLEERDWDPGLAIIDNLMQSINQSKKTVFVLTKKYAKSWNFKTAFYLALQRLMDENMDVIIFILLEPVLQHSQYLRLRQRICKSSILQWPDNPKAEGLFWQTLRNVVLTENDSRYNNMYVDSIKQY
Summary of the method: as §1

human TLR9 = target: T3, human TLR9 (Homo sapiens, UniProt Q9NR96); experiment: TLR9 inhibition reporter assay (HEK-Blue SEAP reporter, ODN2006 stimulation); conditions: HEK-Blue cells overexpressing human TLR9, SEAP reporter, ODN2006 5 nM, 22 hour incubation
T3 construct: host or cells: HEK-Blue cells
T3 sequence (Q9NR96 26-1032): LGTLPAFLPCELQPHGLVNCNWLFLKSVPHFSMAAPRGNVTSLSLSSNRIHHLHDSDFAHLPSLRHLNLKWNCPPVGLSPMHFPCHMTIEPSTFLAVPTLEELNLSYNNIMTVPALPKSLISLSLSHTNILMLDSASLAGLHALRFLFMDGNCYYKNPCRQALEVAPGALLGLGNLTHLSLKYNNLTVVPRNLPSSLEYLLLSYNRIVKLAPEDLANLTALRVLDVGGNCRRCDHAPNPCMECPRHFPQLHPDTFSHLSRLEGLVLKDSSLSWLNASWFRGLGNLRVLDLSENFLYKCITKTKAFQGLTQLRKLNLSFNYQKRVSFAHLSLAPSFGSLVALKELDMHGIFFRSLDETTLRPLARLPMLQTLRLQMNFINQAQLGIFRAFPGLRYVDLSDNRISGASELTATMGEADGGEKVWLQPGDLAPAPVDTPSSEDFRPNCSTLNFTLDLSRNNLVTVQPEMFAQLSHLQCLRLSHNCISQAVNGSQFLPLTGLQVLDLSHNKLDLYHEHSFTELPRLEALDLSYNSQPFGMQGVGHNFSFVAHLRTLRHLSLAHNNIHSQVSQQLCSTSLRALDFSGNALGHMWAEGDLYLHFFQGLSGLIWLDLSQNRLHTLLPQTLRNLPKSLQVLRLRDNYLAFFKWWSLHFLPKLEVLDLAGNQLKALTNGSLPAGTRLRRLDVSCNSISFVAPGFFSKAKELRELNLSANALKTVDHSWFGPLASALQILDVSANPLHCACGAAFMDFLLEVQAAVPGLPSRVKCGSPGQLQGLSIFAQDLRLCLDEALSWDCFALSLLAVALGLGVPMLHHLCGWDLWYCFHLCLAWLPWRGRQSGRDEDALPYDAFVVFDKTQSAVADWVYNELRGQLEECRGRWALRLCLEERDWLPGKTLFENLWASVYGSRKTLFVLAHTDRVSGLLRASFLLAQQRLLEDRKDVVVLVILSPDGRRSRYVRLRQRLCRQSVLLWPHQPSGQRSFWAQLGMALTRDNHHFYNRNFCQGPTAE
Summary of the method: as §1

IC50 (human TLR7)	IC50 (human TLR8)	IC50 (human TLR9)	Structure (SMILES)
194 nM	95.7 nM	3190 nM	COc1cc(-c2[nH]c3ccc(C4CCN(C(=O)CN(C)C)CC4)cc3c2C(C)C)c(C)n(C)c1=O [Example 275, 5-(5-(1-(dimethylglycyl)piperidin-4-yl)-3-isopropyl-1H-indol-2-yl)-3-methoxy-1,6-dimethylpyridin-2(1H)-one]
52.2 nM	80.2 nM	4760 nM	COc1c(C)c(-c2[nH]c3ccc(C4CCN(C(=O)CN(C)C)CC4)cc3c2C(C)C)cn(C)c1=O [Example 276, 5-(5-(1-(dimethylglycyl)piperidin-4-yl)-3-isopropyl-1H-indol-2-yl)-3-methoxy-1,4-dimethylpyridin-2(1H)-one]
9.3 nM	21 nM	15600 nM	COCc1cc(-c2[nH]c3ccc(C4CCN(C(=O)CN(C)C)CC4)cc3c2C(C)C)cn(C)c1=O [Example 277, 5-(5-(1-(dimethylglycyl)piperidin-4-yl)-3-isopropyl-1H-indol-2-yl)-3-(methoxymethyl)-1-methylpyridin-2(1H)-one]
5.3 nM	21 nM	3200 nM	Cc1c(-c2[nH]c3ccc(C4CCN(C(=O)CN(C)C)CC4)cc3c2C(C)C)cn(C)c(=O)c1Cl [Example 278, 3-chloro-5-(5-(1-(dimethylglycyl)piperidin-4-yl)-3-isopropyl-1H-indol-2-yl)-1,4-dimethylpyridin-2(1H)-one]
23.1 nM	5.9 nM	7060 nM	Cc1cc(-c2[nH]c3ccc(C4CCN(C(=O)CN(C)C)CC4)cc3c2C(C)C)c(C)n(C)c1=O [Example 279, 5-(5-(1-(dimethylglycyl)piperidin-4-yl)-3-isopropyl-1H-indol-2-yl)-1,3,6-trimethylpyridin-2(1H)-one]
6.1 nM	9 nM	4570 nM	Cc1c(-c2[nH]c3ccc(C4CCN(C(=O)CN(C)C)CC4)cc3c2C(C)C)cn(C)c(=O)c1C [Example 280, 5-(5-(1-(dimethylglycyl)piperidin-4-yl)-3-isopropyl-1H-indol-2-yl)-1,3,4-trimethylpyridin-2(1H)-one]
47.4 nM	29.6 nM	5700 nM	CCn1cc(-c2[nH]c3ccc(C4CCN(C(=O)CN(C)C)CC4)cc3c2C(C)C)c(C)c(C)c1=O [Example 281, 5-(5-(1-(dimethylglycyl)piperidin-4-yl)-3-isopropyl-1H-indol-2-yl)-1-ethyl-3,4-dimethylpyridin-2(1H)-one]
5.2 nM	7 nM	6270 nM	CCn1cc(-c2[nH]c3ccc(C4CCN(C(=O)CN(C)C)CC4)cc3c2C(C)C)cc(C)c1=O [Example 282, 5-(5-(1-(dimethylglycyl)piperidin-4-yl)-3-isopropyl-1H-indol-2-yl)-1-ethyl-3-methylpyridin-2(1H)-one]
512 nM	46.8 nM	6250 nM	Cc1c(-c2[nH]c3ccc(C4CCN(C(=O)CN(C)C)CC4)cc3c2C(C)C)nn(C)c(=O)c1C [Example 283, 6-(5-(1-(dimethylglycyl)piperidin-4-yl)-3-isopropyl-1H-indol-2-yl)-2,4,5-trimethylpyridazin-3(2H)-one]
6.5 nM	21.8 nM	1660 nM	Cc1cc(-c2[nH]c3ccc(C4CCN(C(=O)CN(C)C)CC4)cc3c2C(C)C)cn(Cc2ccccc2)c1=O [Example 284, 1-benzyl-5-(5-(1-(dimethylglycyl)piperidin-4-yl)-3-isopropyl-1H-indol-2-yl)-3-methylpyridin-2(1H)-one]
14.6 nM	99.1 nM	3410 nM	Cc1cc(-c2[nH]c3ccc(C4CCN(C(=O)CN(C)C)CC4)cc3c2C(C)C)cn(CC(C)C)c1=O [Example 285, 5-(5-(1-(dimethylglycyl)piperidin-4-yl)-3-isopropyl-1H-indol-2-yl)-1-isobutyl-3-methylpyridin-2(1H)-one]
5 nM	5.6 nM	289 nM	COc1cc(-c2[nH]c3ccc(C4CCN(C(=O)CN(C)C)CC4)cc3c2C(C)C)cn(C)c1=O [Example 286, 5-(5-(1-(dimethylglycyl)piperidin-4-yl)-3-isopropyl-1H-indol-2-yl)-3-methoxy-1-methylpyridin-2(1H)-one]
7.8 nM	8.6 nM	18200 nM	COCCn1cc(-c2[nH]c3ccc(C4CCN(C(=O)CN(C)C)CC4)cc3c2C(C)C)cc(C)c1=O [Example 287, 5-(5-(1-(dimethylglycyl)piperidin-4-yl)-3-isopropyl-1H-indol-2-yl)-1-(2-methoxyethyl)-3-methylpyridin-2(1H)-one]
5.9 nM	12.3 nM	5280 nM	Cc1cc(-c2[nH]c3ccc(C4CCN(C(=O)[C@@H]5C[C@@H](O)CN5C)CC4)cc3c2C(C)C)cn(C)c1=O [Example 289, 5-(5-(1-((2S,4R)-4-hydroxy-1-methylpyrrolidine-2-carbonyl)piperidin-4-yl)-3-isopropyl-1H-indol-2-yl)-1,3-dimethylpyridin-2(1H)-one]
